# Measurements taken from PMC12947280, “An Antifungal with a Novel Mechanism of Action Discovered via Resistance Gene-Guided Genome Mining” (ACS Central Science, 2026).
# Like-named read-outs stand apart in the source and are kept apart here.
# Assays:
# Test in all cases: Antifungal screening, broth microdilution MIC
# Format in all cases: cell-based
# [1] = tested on: Aspergillus flavus ATCC 204304; details: for MIC: ATCC204304, Aspergillus flavus ATCC 204304
# Method: (§1) Antifungal screening of 1
# (§2) Antifungal screening was performed by Micromyx, LLC (Kalamazoo, Michigan, USA). Test organisms were either reference strains from the American Type Culture Collection (ATCC; Manassas, VA), the Centers for Disease Control and Prevention (CDC; Atlanta, GA), or clinical isolates from the Micromyx (MMX) collection. Upon receipt at Micromyx, the isolates were streaked under suitable conditions onto agar medium appropriate to each organism. The yeast isolates were incubated for 24 hr at 35 °C and the fungi were incubated for 7 to 13 days at 35 °C, as appropriate. Colonies harvested from these growth plates were resuspended in the appropriate medium containing a cryoprotectant. Aliquots of each suspension were then frozen […]
# (§3) Prior to testing, the yeast isolates were streaked from frozen vials onto Sabouraud Dextrose Agar (SAB; Becton Dickenson [BD]/BBL; Sparks, MD, Lot No. 2228660) and were incubated at 35°C for 24 hr. Additional fungal isolates were streaked from frozen vials onto potato dextrose agar (BD/BBL; Sparks, MD, Lot No. 2046481) and incubated under optimal conditions for […]
# (§4) All MIC measurements were performed in RPMI1640 from Hyclone Laboratories (Logan, UT;
# (§5) Cat. No. SH3001104; Lot No. AC10257966A) buffered with MOPS to pH-7 from Millipore […]
# (§6) MIC values were determined using a broth microdilution procedure described by CLSI. 5,6.
# (§7) Automated liquid handlers (Multidrop 384, Labsystems, Helsinki, Finland; Biomek 3000 and […]
# (§8) Biomek FX, Beckman Coulter Fullerton CA) were used to conduct serial dilutions and liquid […]
# (§9) Solutions of 1 were added in an 11 point 2x serial dilution in DMSO with a maximum tested concentration of 32 μg/ml in the culture medium. Drug solution was added at 1% v/v into 200 μl […]
# (§10) A standardized inoculum of each test organism was prepared in appropriate media per CLSI methods.5,6 The plates were then inoculated with 10 µL of the diluted inoculum using the Biomek 3000 from low to high drug concentration, resulting in a final concentration of approximately 0.5 to 2.5 x 10^3 CFU/mL for yeast and 0.2 to 2.5 x 10^4 CFU/mL for the other fungi. An un-inoculated plate was incubated for the purpose of assessing solubility of the drug […]
# (§11) The plates were stacked 3 to 4 high, covered with a sterile lid on the top plate, and incubated aerobically at 35 °C for 24, 48, and 72 h. For yeast, both the MIC based on complete inhibition and 50% inhibition were reported at 24 and 48 h. For other fungal isolates, the MIC values were recorded at 24 and 48 hr and were based on complete inhibition and 50% inhibition.
# (§12) Intact protein LCMS analysis
# (§13) 10 μM of recombinant S. cerevisiae ALS was incubated with 10 μM compound 1 in buffer (50 mM Tris pH 7.5, 100 mM KCl, 10 uM FAD, 1 mM TPP, 10 mM MgCl2 (with 2.5% DMSO from compound)) at 22 °C for 30 min. Unreacted 1 was removed by passing the reaction mixture through a 30 kDa MWCO filter (Millipore). The collected protein was then denatured and reduced by incubation with 6 M urea and 10 mM DTT at 37 °C for 1 h followed by 20 mM iodoacetamide alkylation for 30 min in dark. This reaction mixture then underwent buffer exchange into 100 mM Tris-HCl pH 8.0 and 10 mM CaCl2 buffer using a 30 kDa MWCO filter.
# (§14) The protein was then incubated with sequencing grade chymotrypsin (Promega) (15:1,w/w) for […]
# (§15) After digestion, the peptide mixture was immediately analysed by LC-MS/MS using a Waters I-class UPLC equipped with an ACQUITY UPLC BEH C18 column (2.1x50 mm, 1.7 µm, Waters) at 50 °C coupled to a Waters Synapt G2Si MS. The sample was injected and subjected to an LC gradient starting from 0.5% mobile phase B (ACN with 0.1% formic acid) for 5 min with linear increase to 40% B over 35 min. Mobile phase A was 0.1% formic acid water. Flow rate was maintained at 0.3 ml/min. MS/MS data was acquired in positive ionization mode with data dependent MS/MS acquisition. Peptide mapping was performed with PEAKs Studio 8.0 (Bioinformatics Solutions Inc.) followed by manual review to identify peptides putatively modified by covalent addition of 1. […]
# [2] = tested on: Fusarium solani ATCC MYA-3636; details: for MIC: Fusarium solani ATCC MYA-3636
# Method: as §1, §2, §3, §4, §5, §6, §7, §8, §9, §10, §11, §12, §13, §14, §15
# [3] = tested on: Fusarium oxysporum ATCC 48112; details: for MIC: ATCC48112, Fusarium oxysporum ATCC 48112
# Method: as §1, §2, §3, §4, §5, §6, §7, §8, §9, §10, §11, §12, §13, §14, §15
# [4] = tested on: Aspergillus terreus ATCC MYA-3628; details: for MIC: Aspergillus terreus ATCC MYA-3628
# Method: as §1, §2, §3, §4, §5, §6, §7, §8, §9, §10, §11, §12, §13, §14, §15
# [5] = tested on: Scedosporium apiospermum ATCC MYA-3635; details: for MIC: Scedosporium apiospermum ATCC MYA-3635
# Method: as §1, §2, §3, §4, §5, §6, §7, §8, §9, §10, §11, §12, §13, §14, §15
# [6] = tested on: Scedosporium prolificans ATCC 11274; details: for MIC: Lomentospora prolificans, ATCC11274, Scedosporium prolificans ATCC 11274
# Method: as §1, §2, §3, §4, §5, §6, §7, §8, §9, §10, §11, §12, §13, §14, §15
# [7] = 24 hr, read-out: MIC 100% growth inhibition
# [8] = 24 hr, read-out: MIC >50% growth inhibition
# [9] = 48 hr, read-out: MIC 100% growth inhibition
# [10] = 48 hr, read-out: MIC >50% growth inhibition
smiles,measurement,setting,value
CCCC1C(C)=CC2CC=CC3(C)C2C1C(=O)C31C(=O)NC(CCCO)C1=O (stereo not drawn) [compound 1],MIC,[1]; [7],> 32 µg/mL
same,MIC,[1]; [8],> 32 µg/mL
same,MIC,[1]; [9],> 32 µg/mL
same,MIC,[1]; [10],> 32 µg/mL
same,MIC (Table S5),"[1]; Aspergillus flavus, species summary",> 32
same,MIC,[2]; [7],> 32 µg/mL
same,MIC,[2]; [8],> 32 µg/mL
same,MIC,[2]; [9],> 32 µg/mL
same,MIC,[2]; [10],> 32 µg/mL
same,MIC (Table S5),"[2]; Fusarium solani, species summary",> 32
same,MIC,[3]; [7],> 32 µg/mL
same,MIC,[3]; [8],> 32 µg/mL
same,MIC,[3]; [9],> 32 µg/mL
same,MIC,[3]; [10],> 32 µg/mL
same,MIC (Table S5),"[3]; Fusarium oxysporum, species summary",> 32
same,MIC,[4]; [7],> 32 µg/mL
same,MIC,[4]; [8],> 32 µg/mL
same,MIC,[4]; [9],> 32 µg/mL
same,MIC,[4]; [10],> 32 µg/mL
same,MIC (Table S5),"[4]; Aspergillus terreus, species summary",> 32
same,MIC,[5]; [7],8 µg/mL
same,MIC,[5]; [8],1 µg/mL
same,MIC,[5]; [9],> 32 µg/mL
same,MIC,[5]; [10],> 32 µg/mL
same,MIC (Table S5),"[5]; Scedosporium apiospermum, species summary",8
same,MIC,[6]; [7],8 µg/mL
same,MIC,[6]; [8],2 µg/mL
same,MIC,[6]; [9],> 32 µg/mL
same,MIC,[6]; [10],> 32 µg/mL
same,MIC (Table S5),"[6]; Scedosporium prolificans, species summary",8
